The values that follow come from paper PMC2709226 (Plant Molecular Biology, 2008).

SMILES strings stand for the structures.

The target of test [1] is acINV (Allium cepa, UniProt O81083). Briefly: biochemical.
In test [2] the target is acINV (Allium cepa, UniProt O81083, W440Y). Briefly: biochemical.

A word on the Km: it is the substrate concentration at which the rate is half of its maximum. With `OC[C@H]1O[C@@](CO)(O[C@H]2O[C@H](CO)[C@@H](O)[C@H](O)[C@H]2O)[C@@H](O)[C@@H]1O` [sucrose], the Km in test [1] was 5.8 ± 1.9 mM; in test [2] it was 8.8 ± 2.4 mM.
